Assay results from patent publication US6271369A, “Chimeric molecules targeted to viral RNAs” (priority 1997, dated 2001).

How the values were obtained:
[1] = system: poly(A); experiment: UV absorbance-temperature profile (melting) of complex with poly(A); assay type: physicochemical; conditions: 40 mM KH2PO4 pH 7.0
Protocol: We also compared the melting temperature of poly (A) with the melting temperature of SEQ ID NO:1 (FIG. 4). For this experiment, 1000 μL of 3.2×10^-6 M poly(A) in KH2 PO4 buffer (pH 7.0, 40 mM) was mixed with 1000 μL of 2.9 ×10^-6 M SEQ ID NO:1 in KH2 PO4 buffer, and the resulting mixture was incubated at 4° overnight before determination of melting temperature. At/Ai refers to the ratio of absorbance (At) at a given temperature compared to the absorbance (Ai) at the initial temperature (25-30° ). No -attempt was made to determine complex stoichiometry (2- or 3-stranded). Under similar conditions, an equimolar mixture of poly(A) and oligo(dT)20 gave a complex with a Tm of 40° (data not shown).
The effect of the 2-5A moiety of SEQ ID NO:1 on the ability of the dT18 region to anneal with its complementary poly (A) sequence as determined from UV absorbance-temperature profiles is shown in FIG. 4.

[2] = system: TAR:A25 :vif RNA; experiment: Primer-extension analysis of TAR:A25:vif RNA cleavage products; assay type: biochemical, HIV-1
Protocol: To determine the exact sites of cleavage of the TAR:A25 :vif RNA induced by SEQ ID NO:1, a primer-extension DNA synthesis reaction was performed on the RNA cleavage products with reverse transcriptase.
A primer extension assay was used as described by Driscoll, et al. (Cell, 58:519 (1989)) except that all four dNTPs were included. DNA sequencing of plasmid pSP6/TAR:A25 :vif was with the same primer using Sequenase version 2.0 (United States Biochemical) and ^35 S-dATP. The sequence of the primer was 5'-[…]-3'(SEQ ID NO:3). Results were reproduced from two separate sets of RNA cleavage reactions.
The cleavage sites of the RNA subjected to the RNA cleavage reactions described above were determined by comparing the migration of the primer extension products and DNA sequencing products performed with the same primer annealed to the plasmid containing the TAR:A25 :vif sequence. […] Previous reports indicate that unmodified 2-sA stimulates 2-5A-dependent RNase to cleave RNA on the 3'-side of UN sequences, where N stands for any nucleotide.

Question: Which results are given for “p5'A2'(p5'A2')2 P5'A2'p1[OCH2 (CH2)2 CH2 O]4p1[OCH2 (CH2)2 CH2 O]4p5'pdT3'(p5'dt3')16 p5'dt (AAAATTTTTTTTTTTTTTTTTT; chemistry not fully specified) [SEQ ID NO:1]”?
Answer: melting temperature (Tm) of complex with poly(A) [1]: approximately 38 °C; hypochromicity on mixing with poly(A) ([1]; 3.2×10^-6 M poly(A) + 2.9×10^-6 M): 17%; specific cleavage products / cleavage sites by primer extension [2]: induced multiple cleavages within the oligo(rA) tract; levels of intact RNA (full-length primer extension products) ([2]; after incubation in cell-free system): greatly reduced
